Columns and labels:
[1] = species not given; ref not given; cited from earlier work
db/db mice [2] = experiment: Chronic 8 week in vivo study in db/db mice; parameters: species or system mouse; settings: Liraglutide 0.1 mg kg^−1 s.c., 8 week treatment, blood
db/db mice [3] = experiment: Hypoglycemic duration test in non-fasted db/db mice; format: in vivo, mouse; settings: 0.1 mg kg^−1 s.c., n = 8
db/db mice [4] = experiment: Modified multiple IPGTTs in fasted db/db mice; format: in vivo, mouse; settings: 0.1 mg kg^−1 single dose, IPGTT at 30 hours

For CCCCCCCCCCCCCCCC(=O)N[C@@H](CCC(=O)NCCCC[C@H](NC(=O)[C@H](C)NC(=O)[C@H](C)NC(=O)[C@H](CCC(N)=O)NC(=O)CNC(=O)[C@H](CCC(=O)O)NC(=O)[C@H](CC(C)C)NC(=O)[C@H](Cc1ccc(O)cc1)NC(=O)[C@H](CO)NC(=O)[C@H](CO)NC(=O)[C@@H](NC(=O)[C@H](CC(=O)O)NC(=O)[C@H](CO)NC(=O)[C@@H](NC(=O)[C@H](Cc1ccccc1)NC(=O)[C@@H](NC(=O)CNC(=O)[C@H](CCC(=O)O)NC(=O)[C@H](C)NC(=O)[C@@H](N)Cc1cnc[nH]1)[C@@H](C)O)[C@@H](C)O)C(C)C)C(=O)N[C@@H](CCC(=O)O)C(=O)N[C@@H](Cc1ccccc1)C(=O)N[C@H](C(=O)N[C@@H](C)C(=O)N[C@@H](Cc1c[nH]c2ccccc12)C(=O)N[C@@H](CC(C)C)C(=O)N[C@H](C(=O)N[C@@H](CCCNC(=N)N)C(=O)NCC(=O)N[C@@H](CCCNC(=N)N)C(=O)NCC(=O)O)C(C)C)[C@@H](C)CC)C(=O)O [Liraglutide], the in vivo half-life [1] is given as ~8 h, the ALT (db/db mice [2]) is given as 45.1 ± 5.1 IU L^−1 and the Cholesterol (db/db mice [2]) is given as 4.1 ± 0.6 mmol/L. For the same compound, the HDL-cholesterol (db/db mice [2]) was 2.6 ± 0.1 mmol/L, the LDL-cholesterol (db/db mice [2]) was 0.8 ± 0.1 mmol/L and the Triglyceride (db/db mice [2]) was 1.1 ± 0.2 mmol/L. For the same compound, the “glucose-lowering percentage by AUC0–96 h vs saline” value (db/db mice [3]) was 18.9% and the “glucose-lowering effect at 30 hours” value (db/db mice [4]) was “almost ineffective”.

Source: paper PMC9072222 (RSC Advances, 2019)
